Where only a bound is given, the exact number is not on record here.

The first assay relates to RSV. Briefly: XTT assay, RSV-infected Vero cells. It is filed as cell-based, Respiratory Syncytial Virus (RSV). The settings on record: Table 1; Vero cells infected with RSV, m.o.i.≈0.2, 6 days at 33° C.; read-out: XTT IC50. The procedure: Examples 1 to 74 and 83 to 124 were tested using the following protocol.
The inner 60 wells of 96 well tissue culture plates were seeded with Vero cells at 3×10^4 cells/well (1×10^4 cells/well for toxicity studies) in 100 or 150 μl of medium and incubated at 37° C. overnight or until nearing confluency. For primary screen, 25 μl compounds were added directly to 100 μl medium in single wells to duplicate plates. A third plate was prepared for simultaneous toxicity investigation.
For follow-up investigation, 70 μl of compound in duplicate wells were added directly to culture medium at 3.2× final concentration and ½ log serially diluted down columns of plate. A duplicate plate was prepared for simultaneous toxicity investigation.
Cells were infected with 25 μl RSV to give m.o.i.≈0.2. Some 100 μl of sterile distilled water were added to the outer wells of the plate and incubated at 33° C. for 6 days. Some 0.25 μl/ml PMS were added to stock XTT solution, final conc. […]. Then 25 μl warmed XTT/PMS solution were added to each well and incubated for 5 hours at 37° C. Plates were shaken (DynaTech Vari-Shaker) vigorously for 10 mins and allowed to cool for 15 mins before sealing. Absorbance at 450 nm was measured and data analysed using Microsoft Excel software.
Maximum OD450nm reading (uninfected, untreated control cells) corresponded to 100% inhibition. Minimum OD450nm readings (infected control cells) corresponded to 0% inhibition. Log 10 concentration was plotted against OD450nm and IC50 (Table 1) values were calculated from either reading 50% value from graph or using regression analysis.
With `O=C1Nc2ccccc2C(c2ccccc2)=NC1NC(=O)N1CCCCC1` (centres unmarked) [Example 16], the IC50 (commonly the point on the concentration scale where inhibition reaches its midpoint) turned out to be 2 µM. Same read-out and setting: next, `CS(=O)(=O)NC1N=C(c2ccccc2)c2cc(Cl)ccc2NC1=O` (centres unmarked) [Example 53, N-(7-Chloro-2-oxo-5-phenyl-2,3-dihydro-1H-benzo[e][1,4]diazepin-3-yl)-methanesulformide]: 5 µM. Still for that read-out and setting: next, `O=C(NC1N=C(c2ccccc2)c2ccccc2NC1=O)C1CCCCC1` (centres unmarked) [Example 8]: 2 µM; `O=C(NC1N=C(c2ccccc2)c2ccccc2NC1=O)c1cccs1` (centres unmarked) [Example 14, Thiophene-2-carboxylic acid (2-oxo-5-phenyl-2,3-dihydro-1H-benzo[e][1,4]diazepin-3-yl)-3-amide]: 1.5 µM.

Still in this assay, the particulars now being: human respiratory syncytial virus, 144 h; Table 1; Vero cells infected with RSV, m.o.i.≈0.2, 6 days at 33° C.; read-out: XTT IC50.
For the compound `O=C(Nc1ccc(Cl)cc1)NC1N=C(c2ccccc2)c2ccccc2NC1=O` (centres unmarked) [Example 71, 1-(4-Chloro-phenyl)-3-(2-oxo-5-phenyl-2,3-dihydro-1H-benzo[e][1,4]diazepin-3-yl)-urea], the IC50 was found to be 3 µM.

The same assay, now with this note: human respiratory syncytial virus, Vero, 144 h, read-out: XTT IC50 (uM), Table 1; Vero cells infected with RSV, m.o.i.≈0.2, 6 days at 33° C.
For `O=C(Nc1ccccc1Cl)NC1N=C(c2ccccc2)c2ccccc2NC1=O` (centres unmarked) [Example 70, 1-(2-Chloro-phenyl)-3-(2-oxo-5-phenyl-2,3-dihydro-1H-benzo[e][1,4]diazepin-3-yl)-urea], the IC50 amounted to 1.5 µM. Still for that read-out and setting: next, `O=C(NC1N=C(c2ccccc2)c2ccccc2NC1=O)c1ccccc1Cl` (centres unmarked) [Example 25, 2-Chloro-N-(2-oxo-5-phenyl-2,3-dihydro-1H-benzo[e][1,4]diazepin-3-yl)-benzamide]: 2 µM; `COc1cccc(CC(=O)NC2N=C(c3ccccc3)c3ccccc3NC2=O)c1` (centres unmarked) [Example 61, 2-(3-Methoxy-phenyl)-N-(2-oxo-5-phenyl-2,3-dihydro-1H-benzo[e][1,4]diazepin-3-yl)-acetamide]: 3 µM; `O=C(Cc1cccc([N+](=O)[O-])c1)NC1N=C(c2ccccc2)c2ccccc2NC1=O` (centres unmarked) [Example 64, 2-(3-Nitro-phenyl)-N-(2-oxo-5-phenyl-2,3-dihydro-1H-benzo[e][1,4]diazepin-3-yl)-acetamide]: 1 µM.

`COc1cc([N+](=O)[O-])ccc1C(=O)N[C@H]1N=C(c2ccccc2)c2ccccc2NC1=O` [Example 27b, (S)-2-Methoxy-4-nitro-N-(2-oxo-5-phenyl-2,3-dihydro-1H-benzo[e][1,4]diazepin-3-yl)-benzamide]: the IC50 is under 0.3 µM. On the same count and under the same terms, next, `CC(=O)NC1N=C(c2ccccc2)c2cc(Cl)ccc2NC1=O` (centres unmarked) [Example 51, N-(7-Chloro-2-oxo-5-phenyl-2,3-dihydro-1H-benzo[e][1,4]diazepin-3-yl)-acetamide]: 5 µM; `O=C(NC1N=C(c2ccccc2)c2cc(Cl)ccc2NC1=O)C1CCCCC1` (centres unmarked) [Example 56, Cyclohexanecarboxylic acid (7-Chloro-2-oxo-5-phenyl-2,3-dihydro-1H-benzo[e][1,4]diazepin-3-yl)-amide]: 5 µM; `O=C(Cc1cccc(C(F)(F)F)c1)NC1N=C(c2ccccc2)c2ccccc2NC1=O` (centres unmarked) [Example 66, N-(2-Oxo-5-phenyl-2,3-dihydro-1H-benzo[e][1,4]diazepin-3-yl)-2-(3-trifluoromethyl-phenyl)-acetamide]: 1.5 µM. The same measure, in the same setting: next, `O=C(NC1N=C(c2ccccc2)c2ccccc2NC1=O)c1ccccc1` (centres unmarked) [Example 13, N-(2-Oxo-5-phenyl-2,3-dihydro-1H-benzo[e][1,4]diazepin-3-yl)-benzamide]: 1.5 µM; `CC(C)C(=O)NC1N=C(c2ccccc2)c2cc(Cl)ccc2NC1=O` (centres unmarked) [Example 52, N-(7-Chloro-2-oxo-5-phenyl-2,3-dihydro-1H-benzo[e][1,4]diazepin-3-yl)-isobutyramide]: 3 µM; `O=C(NC1N=C(c2ccccc2)c2ccccc2NC1=O)c1ccc(Br)cc1` (centres unmarked) [Example 23, 4-Bromo-N-(2-oxo-5-phenyl-2,3-dihydro-1H-benzo[e][1,4]diazepin-3-yl)-benzamide]: 5 µM. Still for that read-out and setting: next, `O=C(Cc1ccc(C(F)(F)F)cc1)NC1N=C(c2ccccc2)c2ccccc2NC1=O` (centres unmarked) [Example 67, N-(2-Oxo-5-phenyl-2,3-dihydro-1H-benzo[e][1,4]diazepin-3-yl)-2-(4-trifluoromethyl-phenyl)-acetamide]: 1.5 µM; `COc1ccccc1C(=O)NC1N=C(c2ccccc2)c2cc(Cl)ccc2NC1=O` (centres unmarked) [Example 57, N-(7-Chloro-2-oxo-5-phenyl-2,3-dihydro-1H-benzo[e][1,4]diazepin-3-yl)-2-methoxy-benzamide]: 0.7 µM. Turning to `COc1ccc(CC(=O)NC2N=C(c3ccccc3)c3ccccc3NC2=O)cc1` (centres unmarked) [Example 62, 2-(4-Methoxy-phenyl)-N-(2-oxo-5-phenyl-2,3-dihydro-1H-benzo[e][1,4]diazepin-3-yl)-acetamide], the IC50 was 1.5 µM. For the compound `O=C1Nc2ccccc2C(c2ccccc2)=NC1NS(=O)(=O)c1ccc(Br)cc1` (centres unmarked) [Example 40, 4-Bromo-N-(2-oxo-5-phenyl-2,3-dihydro-1H-benzo[e][1,4]diazepin-3-yl)-benzenesulfonamide], the IC50 stood at 10 µM.

As for `O=C(NC1N=C(c2ccccc2)c2cc(Cl)ccc2NC1=O)c1ccccc1[N+](=O)[O-]` (centres unmarked) [Example 59, N-(7-Chloro-2-oxo-5-phenyl-2,3-dihydro-1H-benzo[e][1,4]diazepin-3-yl)-2-nitro-benzamide], the IC50 was 5 µM. On the same count and under the same terms, next, `O=C(Cc1ccccc1C(F)(F)F)NC1N=C(c2ccccc2)c2ccccc2NC1=O` (centres unmarked) [Example 65, N-(2-Oxo-5-phenyl-2,3-dihydro-1H-benzo[e][1,4]diazepin-3-yl)-2-(2-trifluoromethyl-phenyl)-acetamide]: 2 µM. Still for that read-out and setting: the same measure for `CCN(CC)C(=O)NC1N=C(c2ccccc2)c2ccccc2NC1=O` (centres unmarked) [Example 2, 1,1-Diethyl-3-(2-oxo-5-phenyl-2,3-dihydro 1H-benzo[e][1,4]diazepin-3-yl)-urea]: 4 µM. With `O=C(NC1N=C(c2ccccc2)c2ccccc2NC1=O)c1cc2ccccc2s1` (centres unmarked) [Example 31, Benzo[b]thiophene-2-carboxylic acid (2-oxo-5-phenyl-2,3-dihydro-1H-benzo[e][1,4]diazepin-3-yl)-amide], the IC50 came to 5 µM. On the same count and under the same terms, the same measure for `O=C(NC1N=C(c2ccccc2)c2ccccc2NC1=O)c1cccc(C(F)(F)F)c1` (centres unmarked) [Example 12, N-(2-Oxo-5-phenyl-2,3-dihydro-1H-benzo[e][1,4]diazepin-3-yl)-3-trifluoromethyl-benzamide]: 2.5 µM; for `O=C1Nc2ccccc2C(c2ccccc2)=NC1NS(=O)(=O)c1ccccc1Br` (centres unmarked) [Example 38, 2-Bromo-N-(2-oxo-5-phenyl-2,3-dihydro-1H-benzo[e][1,4]diazepin-3-yl)-benzenesulfonamide]: 6 µM; for `O=C(Nc1ccccc1[N+](=O)[O-])NC1N=C(c2ccccc2)c2ccccc2NC1=O` (centres unmarked) [Example 69, 1-(2-Nitro-phenyl)-3-(2-oxo-5-phenyl-2,3-dihydro-1H-benzo[e][1,4]diazepin-3-yl)-urea]: 1.5 µM.

`O=C(NC1N=C(c2ccccc2)c2ccccc2NC1=O)c1ccc([N+](=O)[O-])cc1` (centres unmarked) [Example 18, 4-Nitro-N-(2-oxo-5-phenyl-2,3-dihydro-1H-benzo[e][1,4]diazepin-3-yl)-benzamide]: the IC50 is 2 µM. As for `COc1cc([N+](=O)[O-])ccc1C(=O)NC1N=C(c2ccccc2)c2ccccc2NC1=O` (centres unmarked) [Example 27a, 2-Methoxy-4-nitro-N-(2-oxo-5-phenyl-2,3-dihydro-1H-benzo[e][1,4]diazepin-3-yl)-benzamide], the IC50 turned out to be 0.3 µM.

For the origin of these results see patent US8119630B2 (Arrow Therapeutics Limited, priority 2002, dated 2012).
